From US5886165A, “Mixed backbone antisense oligonucleotides containing 2'-5'-ribonucleotide- and 3'-5'-deoxyribonucleotides segments” (Hybridon, Inc., priority 1996, dated 1999)
[25] = 2'-5' internucleotide linkage (phosphodiester)

What was measured:
[1] = test system: DNA target strand SEQ ID NO 10 (25 base sequence from the initiation codon region of the HIV-1 gag mRNA); test: Thermal melting study, duplex with DNA target strand; format: binding
Protocol: (§1) Thermal denaturation studies were carried out by mixing MBOs with the DNA or RNA target strands in equimolar ratios in 10 mM disodium hydrogen phosphate, pH 7.5±0.1, 100 mM sodium chloride buffer, heated to 95° C. for 10 min, and allowed to come to room temperature slowly before being stored at 4° C. overnight. The final total concentration of the oligonucleotide strands was 2.0 μM. Spectrophotometric measurements were performed at 260 nm using 1 cm path length quartz cuvettes at a heating rate of 0.5° C./min on a Perkin-Elmer (Norwalk, Conn.) Lambda 2 Specotrometer attached to a thermal controller and a personal computer. Melting temperatures (Tm) taken as the temperature of half-dissociation and were obtained from first derivative plots. Precision in Tm values estimated from variance in two or three repeated experiments was ±0.5° C.

[2] = test system: RNA target strand SEQ ID NO 9 (25 base sequence from the initiation codon region of the HIV-1 gag mRNA); test: Thermal melting study, duplex with RNA target strand; format: binding
Protocol: as §1

Spleen cells (CD1 mouse) = test: In vitro cell proliferation assay ([3H]thymidine); format: cell-based; conditions: at 10 μg/ml, 48 hrs
Protocol: Cell proliferation assays were carried out as described earlier (Zhao et al., Biochem. Pharmacol 51, 173-182 (1996)). Spleen cells (4-5 week old male CD1 mouse, 20-22 gm, Charles River, Wilmington, Mass.) suspensions were prepared and plated in 96-well dishes at a density of 10^6 cells/ml in a final volume of 100 μl. The cells were incubated at 37° C. after adding 10 μl of oligonucleotides. After 44 hrs incubation, 1 μCi [3H]thymidine (Amersham, Arlington Heights, Ill.) was added and the cells were pulse-labeled for another 4 hrs. The cells were harvested by an automatic cell harvester and the filters were counted by a scintillation counter. All experiments were carried out in triplicate.

[3] = test system: citrated normal human donor plasma; test: Clotting assay, activated partial thromboplastin time (aPTT); conditions: compared to saline control
Protocol: The activated partial thromboplastin time (aPTT) was performed with citrated normal human donor plasma in duplicate on an Electra 1000C (Medical Laboratory Automation, Mount Vernon, N.Y.) according to recommended procedures using Actin FSL (Baxter Dade, Miami, Fla.) and 2.5 mM calcium to initiate clot formation, which was measured photometrically. Normal plasma aPTT values ranged from 27 to 39 sec. Data were calculated as 50% of prolongation as compared to the saline control.

[4] = Stability in DMEM cell culture medium containing 10% fetal calf serum; format: in vitro ADME; conditions: DMEM with 10% non-heat-inactivated fetal calf serum, 37° C.
Protocol: Oligonucleotides were labeled at the 5'-end with ^32 P using γ-^32 P-ATP (Amersham) and T4 polynucleotide kinase (Promega). Sambrook et al, Molecular Cloning, supra. Stability of the oligonucleotides in cell culture medium containing 10% fetal calf serum was tested by incubating a small amount of labeled oligonucleotide together with 100 ng of cold oligonucleotide in DMEM cell culture medium (Gibco/BRL, Grand Island, N.Y.) containing 10% non-heat-inactivated fetal calf serum (Gibco/BRL) at 37° C. in a final volume of 40 μl, and aliquots were removed at different times.

[5] = test system: snake venom phosphodiesterase; test: Snake venom phosphodiesterase assay; format: in vitro ADME; conditions: 0.01 U, 21° C.; compared with SEQ ID NO 7
Protocol: (§2) For snake venom phosphodiesterase assay, labeled oligonucleotide with cold oligonucleotide in a buffer (10 mM Tris, pH 8.0, 100 mM sodium chloride, and 10 mM magnesium chloride) was incubated with 0.01 U of snake venom phosphodiesterase (Boehringer-Mannheim, Indianapolis, Ind.) at 21° C. (final volume 40 μl). Aliquots were removed at different time intervals for electrophoretic gel analysis. For S1 nuclease assay, reactions were carried out as above but in […] sodium acetate, pH 5.0, 10 mM zinc acetate buffer and with 1.4 U of S1 nuclease (Gibco/BRL) incubated at 37° C. in a final volume of 50 μl. Aliquots were removed at different time intervals for electrophoretic gel analysis. Nuclease reactions were stopped by adding 5 μl of formamide gel loading buffer to each sample and heating at 90° C. for 5 min. All the samples were then run by 20% PAGE (7M urea) and visualized by autoradiography.

S1 nuclease = target: T1, S1 nuclease (Aspergillus oryzae, UniProt P24021); test: S1 nuclease assay; format: in vitro ADME; conditions: 1.4 U, 37° C., pH 5.0
T1 construct: purchased Gibco/BRL
T1 sequence (P24021 21-287): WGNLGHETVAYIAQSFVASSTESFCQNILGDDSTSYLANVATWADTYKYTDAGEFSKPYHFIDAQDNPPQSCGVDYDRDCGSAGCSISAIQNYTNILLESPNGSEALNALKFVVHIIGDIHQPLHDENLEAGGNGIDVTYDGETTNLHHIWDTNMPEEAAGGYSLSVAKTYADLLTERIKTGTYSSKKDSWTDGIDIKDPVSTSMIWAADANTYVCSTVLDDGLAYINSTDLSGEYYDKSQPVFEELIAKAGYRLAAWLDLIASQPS
Protocol: as §2

## SEQ ID NO 1: Phosphodiester MBO with three 2'-5'-linkages at each of the 5'- and 3'-ends, complementary to HIV-1 gag mRNA (antisense CUCTCGCACCCATCTCTCTCCUUCT; linkages [25]3 o18 [25]3 (s phosphorothioate, o phosphodiester), sugars by position and methylation of C not given here)
[1]; duplex with DNA SEQ ID NO 10, 10 mM disodium hydrogen phosphate pH 7.5, 100 mM NaCl, 2.0 μM total strands
  Tm DNA: 60.6 °C
[1]; vs SEQ ID NO 7, DNA SEQ ID NO 10
  Tm lower than duplex of control oligonucleotide SEQ ID NO 7, DNA target: about 2.9 °C
[2]; duplex with RNA SEQ ID NO 9, 10 mM disodium hydrogen phosphate pH 7.5, 100 mM NaCl, 2.0 μM total strands
  Tm RNA: 67.8 °C
[2]; vs SEQ ID NO 7, RNA SEQ ID NO 9
  Tm lower than duplex of control oligonucleotide SEQ ID NO 7, RNA target: ~2.7 °C
Spleen cells (CD1 mouse)
  Stimulation Index (Lymphocyte Proliferation): 0.67 ± 0.11
[3]; human plasma
  50% Prolongation of Clotting (aPTT): > 100.0 µg/mL
[3]; up to 100 μg/ml dose
  effect in coagulation assay (in words): negligible effect
[4]
  stability in serum (in words): intact up to four hours
[5]
  stability against snake venom phosphodiesterase (in words): slightly higher stability
S1 nuclease
  digestion by S1 nuclease (in words): quickly digested
